Data published in publication doi:10.1101/2025.11.20.689572v1 (biorxiv, 2025).
Where two headings read alike, the source gives them in different places.

Columns and labels:
Assay in all cases: cell-based
Design in all cases: PRESTO-Tango beta-arrestin2 recruitment, luciferase luminescence, concentration-response
Settings in all cases: HTLA, Assay=Tango, agonist mode, % of control agonist
[1] = target: T1, CHRM2 (Homo sapiens, UniProt P08172)
T1 sequence (P08172 1-466): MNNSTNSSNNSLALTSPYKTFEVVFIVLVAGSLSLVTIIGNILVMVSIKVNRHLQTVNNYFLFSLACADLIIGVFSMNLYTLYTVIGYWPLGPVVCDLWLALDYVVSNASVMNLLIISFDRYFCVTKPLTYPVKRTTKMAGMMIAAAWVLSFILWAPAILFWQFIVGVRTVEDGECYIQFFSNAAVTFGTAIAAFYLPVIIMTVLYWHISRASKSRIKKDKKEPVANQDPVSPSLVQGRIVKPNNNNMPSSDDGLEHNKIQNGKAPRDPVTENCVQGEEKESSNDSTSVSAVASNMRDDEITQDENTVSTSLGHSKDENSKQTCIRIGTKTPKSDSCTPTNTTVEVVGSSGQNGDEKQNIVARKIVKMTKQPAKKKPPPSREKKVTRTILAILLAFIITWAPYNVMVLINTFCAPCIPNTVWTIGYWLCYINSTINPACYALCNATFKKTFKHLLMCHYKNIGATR
Description: (§1) Off-target agonism across the human GPCRome was profiled using PRESTO-Tango, following established protocols with minor adaptations [10]–[12]. […] After ~6 h recovery, cells were transfected with 20 ng plasmid DNA per well and incubated overnight. The next day, 10 µL of test compound (prepared in DMEM + 1% dFBS) was added, and plates were incubated overnight. Media and compounds were removed, and 20 µL per well of Bright-Glo luciferase reagent diluted in assay buffer (Hank’s Balanced Salt Solution (HBSS), 20 mM HEPES, pH 7.4) was added. After 20 min at room temperature (dark), luminescence was recorded. Each plate included the dopamine D2 receptor (DRD2) stimulated with 100 nM quinpirole as a positive control. For the GPCRome screen, each receptor was tested in quadruplicate at 0 and 10 µM compound (final). Responses were expressed as fold change relative to the basal (0 µM) condition. Follow-up concentration–response assays were performed under identical conditions except that serial dilutions of compounds (maximum ~30 µM, final) were added to generate full concentration–response curves.

[2] = target: CHRM3 (Homo sapiens, UniProt P20309)
Sequence of CHRM3 (P20309 whole entry): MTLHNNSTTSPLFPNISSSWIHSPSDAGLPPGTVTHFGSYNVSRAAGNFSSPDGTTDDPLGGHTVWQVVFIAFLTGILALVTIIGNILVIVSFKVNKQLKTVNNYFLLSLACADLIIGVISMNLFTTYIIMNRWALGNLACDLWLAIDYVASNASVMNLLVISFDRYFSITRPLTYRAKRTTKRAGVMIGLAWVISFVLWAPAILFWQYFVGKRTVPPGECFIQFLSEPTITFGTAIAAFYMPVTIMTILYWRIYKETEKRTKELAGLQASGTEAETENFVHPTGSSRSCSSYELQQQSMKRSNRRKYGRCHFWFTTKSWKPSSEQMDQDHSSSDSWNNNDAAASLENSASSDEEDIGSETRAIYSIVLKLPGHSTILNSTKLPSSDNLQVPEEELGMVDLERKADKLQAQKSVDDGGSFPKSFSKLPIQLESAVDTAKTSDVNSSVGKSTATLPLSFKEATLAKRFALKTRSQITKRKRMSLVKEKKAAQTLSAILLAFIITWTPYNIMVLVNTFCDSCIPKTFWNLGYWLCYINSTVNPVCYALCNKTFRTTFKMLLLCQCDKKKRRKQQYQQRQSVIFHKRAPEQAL
Description: as §1

[3] = target: T2, CHRM4 (Homo sapiens, UniProt P08173)
T2 sequence (P08173 1-479): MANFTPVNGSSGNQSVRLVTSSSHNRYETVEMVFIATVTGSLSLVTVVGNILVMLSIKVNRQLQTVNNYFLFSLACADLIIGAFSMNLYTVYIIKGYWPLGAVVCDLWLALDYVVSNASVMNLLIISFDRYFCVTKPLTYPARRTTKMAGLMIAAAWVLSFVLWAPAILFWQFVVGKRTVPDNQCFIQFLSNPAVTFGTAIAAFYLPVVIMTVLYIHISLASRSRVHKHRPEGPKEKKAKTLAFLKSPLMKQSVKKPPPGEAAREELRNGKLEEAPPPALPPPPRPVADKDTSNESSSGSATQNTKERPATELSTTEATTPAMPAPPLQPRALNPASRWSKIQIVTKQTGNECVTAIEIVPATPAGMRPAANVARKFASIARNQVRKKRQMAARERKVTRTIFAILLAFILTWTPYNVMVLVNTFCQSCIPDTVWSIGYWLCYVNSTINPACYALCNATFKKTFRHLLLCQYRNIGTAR
Description: as §1

[4] = target: T3, CHRM5 (Homo sapiens, UniProt P08912)
T3 sequence (P08912 1-532): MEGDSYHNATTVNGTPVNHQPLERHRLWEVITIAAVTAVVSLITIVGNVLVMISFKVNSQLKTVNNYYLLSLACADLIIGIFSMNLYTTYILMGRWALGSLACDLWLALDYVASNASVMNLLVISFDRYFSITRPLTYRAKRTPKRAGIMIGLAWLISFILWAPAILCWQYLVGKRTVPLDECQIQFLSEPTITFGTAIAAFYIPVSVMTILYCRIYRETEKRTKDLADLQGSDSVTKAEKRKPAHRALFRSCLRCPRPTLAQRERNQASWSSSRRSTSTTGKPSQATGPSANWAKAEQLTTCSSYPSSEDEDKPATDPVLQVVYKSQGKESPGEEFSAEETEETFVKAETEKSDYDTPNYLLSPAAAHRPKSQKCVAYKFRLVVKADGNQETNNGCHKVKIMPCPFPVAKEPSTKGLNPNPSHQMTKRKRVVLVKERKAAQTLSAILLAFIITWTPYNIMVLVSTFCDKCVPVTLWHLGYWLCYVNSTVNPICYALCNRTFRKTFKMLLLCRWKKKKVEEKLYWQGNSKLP
Description: as §1

[5] = target: HRH3 (Homo sapiens, UniProt Q9Y5N1)
Sequence of HRH3 (Q9Y5N1 whole entry): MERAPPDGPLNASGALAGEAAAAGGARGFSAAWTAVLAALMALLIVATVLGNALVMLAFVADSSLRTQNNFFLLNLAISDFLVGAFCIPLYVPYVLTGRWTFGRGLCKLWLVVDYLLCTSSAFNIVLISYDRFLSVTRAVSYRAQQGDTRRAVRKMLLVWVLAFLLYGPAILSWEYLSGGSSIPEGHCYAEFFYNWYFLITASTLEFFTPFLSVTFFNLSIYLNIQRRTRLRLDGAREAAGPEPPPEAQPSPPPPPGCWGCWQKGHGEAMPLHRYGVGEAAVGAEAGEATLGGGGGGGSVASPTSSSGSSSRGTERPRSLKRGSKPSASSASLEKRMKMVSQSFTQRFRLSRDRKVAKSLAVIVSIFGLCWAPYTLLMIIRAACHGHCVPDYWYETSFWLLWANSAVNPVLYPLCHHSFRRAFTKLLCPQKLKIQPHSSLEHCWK
Description: as §1

[6] = target: HTR1D (Homo sapiens, UniProt P28221)
Sequence of HTR1D (P28221 whole entry): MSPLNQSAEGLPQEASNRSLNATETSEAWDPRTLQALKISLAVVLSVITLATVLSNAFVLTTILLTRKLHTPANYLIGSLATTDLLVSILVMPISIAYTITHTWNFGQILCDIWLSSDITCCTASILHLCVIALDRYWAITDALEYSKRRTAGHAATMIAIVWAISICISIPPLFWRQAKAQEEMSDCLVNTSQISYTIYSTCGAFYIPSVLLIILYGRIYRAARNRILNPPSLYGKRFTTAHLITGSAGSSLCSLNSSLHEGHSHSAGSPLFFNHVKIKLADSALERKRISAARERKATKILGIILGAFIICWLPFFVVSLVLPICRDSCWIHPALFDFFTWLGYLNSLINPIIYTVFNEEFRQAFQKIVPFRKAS
Description: as §1

[7] = read-out: N-Desmethyl Xanomeline

Compound	Emax [1, 7] [%]	Emax [2, 7] [%]	Emax [3, 7] [%]	Emax [4, 7] [%]	Emax [5, 7] [%]	Emax [6, 7] [%]	Emax ([1]; read-out: Xanomeline) [%]	Emax ([2]; read-out: Xanomeline) [%]	Emax ([3]; read-out: Xanomeline) [%]	Emax ([4]; read-out: Xanomeline) [%]	Emax ([5]; read-out: Xanomeline) [%]	Emax ([6]; read-out: Xanomeline) [%]
CCCCCCOc1nsnc1C1=CCCNC1 [N-desmethylxanomeline]	42.6	32.1	67.5	48.2	16.8	51.2						
CCCCCCOc1nsnc1C1=CCCN(C)C1 [Xanomeline]							45.5	42.8	72.5	70.1	2.89	73.3
